Assay results: US9573966B2, “Anti-cancer activity of novel bicyclic heterocycles” (Katholieke Universiteit Leuven, K.U.Leuven R&D, priority 2010, dated 2017)

Legend:
LNCaP cells = assay: Inhibition of LNCaP prostate carcinoma cell line proliferation (WST-1); assay type: cell-based; conditions: Homo sapiens, 48 h; cytotoxicity on LNCaP cells, two days incubation, WST-1 read-out
Procedure: LNCaP cell line, a prostate carcinoma cell line, was grown in RPMI-1640 medium (Lonza, Belgium) supplemented with 10% fetal calf serum (Hyclone, US) and antibiotics. Exponential growing phase cells were seed in flat bottom 96-well microplates (TTP, Switzerland) at 10000 cells per well in 200 μl of medium. The day after, 20 μl of compounds (in different concentrations) were added and incubated for two days at 37° C., 5% CO2. After incubation, 100 μl of supernatant were removed and 10 μl of WST-1 (Roche, Switzerland) were added. After 2 hour incubation at 37° C., 5% CO2, optical densities were measured at 450 nm. Proliferation is calculated with respect of control points (no compound and treatment with Triton X100 to have maximum and minimum proliferation data). The IC50 was determined from a graph with at least four points, each derived from the mean of at least 2 experiments. […] The results are shown in Table 3 for a number of compounds.

HL-60 cells = assay: Inhibition of HL-60 leukemic cell line proliferation (WST-1); assay type: cell-based, human; conditions: Homo sapiens, 48 h; cytotoxicity on HL-60 cells, two days incubation, WST-1 read-out
Procedure, shortened: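 HL-60 cells, 50000/well, exposed to compounds for two days at 37 °C, then 2 h WST-1 with OD at 450 nm. Proliferation scaled between untreated and Triton X100 controls; IC50 from at least four points, each a mean of ≥2 experiments.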

HSB-2 cells = assay: Inhibition of HSB-2 leukemic cell line proliferation (WST-1); assay type: cell-based, human; conditions: Homo sapiens, HSB2, 48 h, cytotoxicity on HSB-2 cells, two days incubation, WST-1 read-out
Procedure, shortened: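 HSB-2 human ALL cells, 50000/well in RPMI-1640 + 10% FCS, exposed to compounds 2 days at 37 °C, then WST-1 2 h, OD 450 nm. Proliferation scaled between untreated (max) and Triton X100 (min) controls; IC50 from ≥4-point curves, each point mean of ≥2 experiments.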

hu EOL-1 leukemia = test system: hu EOL-1 leukemia
Procedure: The test compound (Example 222) was dissolved in DMSO (5% final concentration) and further solubilised in 0.5% Tween 80 in 1% methylcellulose. The resulting suspension was warmed for 10 minutes to 37° C. in an ultrasound water bath to obtain a homogeneous formulation for oral administration. At day 0, 24 male NSG mice received a s.c. inoculum of 10^7 EOL-1 cells taken from in vitro culture and mixed with 50% matrigel. At day 10 tumours were palpable, mice were randomized into three treatment groups and therapy initiated. The test compound (Example 222) and the vehicle were administered orally (p.o.) once daily until the end of the experiment. Cyclophosphamide was administered only once intraperitoneally (i.p.).

Row | SMILES | IC50 (LNCaP cells) [nM] | IC50 (HL-60 cells) [nM] | IC50 (HSB-2 cells) [nM] | behavioural changes or deaths (hu EOL-1 leukemia; EOL-1 xenograft in NSG mice, Example 222 p.o. once daily) | antileukemic activity (hu EOL-1 leukemia; EOL-1 xenograft model, conclusion) | body weight loss (hu EOL-1 leukemia; mouse, in vivo) [%] | tolerability (hu EOL-1 leukemia; mouse, in vivo) | effect on tumour growth (tumour volume) relative to vehicle (hu EOL-1 leukemia; s.c. EOL-1 tumours in NSG mice, therapy from day 10 to day 21, Example 222 p.o. once daily, cyclophosphamide once i.p.) | melting point [°C]
1 | Cc1ccc(NC(=O)N2CCN(c3nc(N)nc4sc(-c5cccnc5)nc34)CC2)cc1 [Example 222, 4-(5-amino-2-(pyridin-3-yl)thiazolo[5,4-d]pyrimidin-7-yl)-N-p-tolylpiperazine-1-carboxamide] | 2870 | 50 | 50 | did not lead to any behavioural changes or deaths | significant antileukemic activity | 11 | well tolerated | moderate but significant (p<0.05) delay of tumour growth | 
2 | CCOc1nc(N)nc2sc(-c3ccc(F)cc3)cc12 [Example 363, 4-ethoxy-6-(4-fluorophenyl)thieno[2,3-d]pyrimidin-2-amine] |  |  |  |  |  |  |  |  | 142
3 | Nc1nc(N2CCN(C(=O)Nc3ccccc3)CC2)c2nc(-c3cccnc3)sc2n1 [Example 440, 4-(5-amino-2-(pyridin-3-yl)thiazolo[5,4-d]pyrimidin-7-yl)-N-phenylpiperazine-1-carboxamide] | 17100 | 64 | 58 |  |  |  |  |  | 
4 | Cc1cccc(NC(=O)N2CCN(c3nc(N)nc4sc(-c5ccccc5)nc34)CC2)c1 [Example 220, 4-(5-amino-2-phenylthiazolo[5,4-d]pyrimidin-7-yl)-N-m-tolylpiperazine-1-carboxamide] | 11200 | 920 | 770 |  |  |  |  |  | 
